Key:
DIPGX37 [1] = H3.3 K27M diffuse intrinsic pontine glioma line; test: EC50 (inflection of fitted growth-inhibition curve) (log10 M)
Outline: (§1)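 Compounds were delivered by pin tool as a 10-point threefold dilution series with a mean top concentration of 35 μM, in triplicate, to patient-derived pHGG/DIPG cell lines and astrocyte controls growing on 1% Geltrex-coated 384-well plates. Incubation lasted 7 days, or 3 days for iAstro, at 37 °C with 5% CO2. EC50 and maximal response (yFin) come from the three- or four-parameter log-logistic fit with the lowest AICc, applied to pooled, log2-transformed CellTiter-Glo luminescence normalised per plate to % activity between solvent (negative) and positive control wells.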

HGGX6 [2] = H3.3 G34R paediatric high-grade glioma line; test: as above
Outline: as §1

DIPGX29 [3] = H3.3 K27M diffuse intrinsic pontine glioma line; test: as above
Outline: as §1

HGGX39 [4] = paediatric high-grade glioma line; test: as above
Outline: as §1

DIPGX37 [5] = test: area under dose-response curve of % growth inhibition (log2 RLU vs DMSO / staurosporine), 1e-11 to 1e-4 M (% x log10 M); higher = more growth inhibition
Outline: (§2)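 Area under the curve was derived with the trapezoid rule from a fitted log-logistic curve, switching to a smoothing spline if the sigmoid fit failed. It rested on per-plate % activity between solvent and positive controls, calculated from log2-transformed CellTiter-Glo luminescence after 7 days of exposure (3 days for iAstro) at 37 °C, 5% CO2. Patient-derived pHGG/DIPG lines and astrocytes on 1% Geltrex-coated 384-well plates received a 10-point threefold dilution series, mean top concentration 35 μM, in triplicate.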

HGGX6 [6] = test: as above
Outline: as §2

DIPGX29 [7] = test: as above
Outline: as §2

HGGX39 [8] = test: as above
Outline: as §2

DIPGX37 [9] = test: maximal growth inhibition (yFin) relative to DMSO / staurosporine; higher = more efficacious
Outline: as §1

HGGX6 [10] = test: as above
Outline: as §1

DIPGX29 [11] = test: as above
Outline: as §1

HGGX39 [12] = test: as above
Outline: as §1

Structure (SMILES)	EC50 (log10 M) (DIPGX37 [1])	EC50 (log10 M) (HGGX6 [2])	EC50 (log10 M) (DIPGX29 [3])	EC50 (log10 M) (HGGX39 [4])	area under dose-response curve (DIPGX37 [5])	area under dose-response curve (HGGX6 [6])	area under dose-response curve (DIPGX29 [7])	area under dose-response curve (HGGX39 [8])	maximal growth inhibition (DIPGX37 [9])	maximal growth inhibition (HGGX6 [10])	maximal growth inhibition (DIPGX29 [11])	maximal growth inhibition (HGGX39 [12])
COc1ccccc1-c1cc(Nc2cccc(CS(N)(=O)=O)c2)ncn1	-4.68	-4.83	-4.82	-4.84	39.8	54.4	58.4	40.5	59.7%	65.7%	71.9%	48.3%
Cc1nc(Nc2n[nH]c3c2CN(C(=O)N[C@H](CN(C)C)c2ccccc2)C3(C)C)c2sccc2n1	-5.56	-5.66	-5.45	-5.22	177	174	150	120	80.1%	75.5%	77.2%	79.6%
O=C1NCCc2[nH]c(-c3ccncc3)cc21	-5.9	-5.81	-5.62	-5.41	111	124	110	98.2	58.9%	65.9%	67.8%	71.2%
COc1cc2c(cc1O)CC[C@@H]1[C@@H]2CC[C@]2(C)[C@@H](O)CC[C@@H]12 [2-METHOXYESTRADIOL]	-4.96	-5.65	-5.23	-4.89	48.8	38.9	40.9	47.3	36.4%	23.6%	22.8%	53%
Nc1c2ccccc2nc2ccccc12 [9-AMINOACRIDINE]	-4.83	-4.82	-4.84	-4.83	70.3	65.1	59.1	74	85.8%	80.2%	71%	89.5%
CC[C@@]1(O)C[C@H](O[C@H]2C[C@H](N(C)C)[C@H](O[C@H]3C[C@H](O)[C@H](O[C@H]4CCC(=O)[C@H](C)O4)[C@H](C)O3)[C@H](C)O2)c2c(cc3c(c2O)C(=O)c2c(O)cccc2C3=O)[C@H]1C(=O)OC [ACLARUBICIN]	-6.79	-5.33	-5.38	-5.35	173	111	96.6	118	62.1%	62.1%	58.7%	65.6%
CCCCC(CC)CNC(=N)NC(=N)NCCCCCCNC(=N)NC(=N)NCC(CC)CCCC (stereo not drawn) [ALEXIDINE]	-5.67	-5.48	-6.06	-5.64	126	105	130	126	78.2%	73.3%	63.3%	80.3%
CCCCc1oc2ccccc2c1C(=O)c1cc(I)c(OCCN(CC)CC)c(I)c1 [AMIODARONE]	-4.76	-4.8	-4.79	-4.83	63.2	63	63.6	74.6	83%	78.8%	80%	89.3%
CCOC(=O)C1=C(COCCN)NC(C)=C(C(=O)OC)C1c1ccccc1Cl (stereo not drawn) [AMLODIPINE]	-4.82	-4.75	-4.86	-4.83	72.4	64.5	69.2	75.8	88%	85.6%	80.4%	91.4%
CCC(C)(C)c1ccc(CC(C)CN2C[C@@H](C)O[C@@H](C)C2)cc1 (stereo partly drawn) [AMOROLFINE]	-5.29	-5.36	-5.09	-5.11	62.1	58.4	47.6	103	48%	41.6%	33.2%	72.1%
C[C@@H](O[C@H]1OCCN(Cc2n[nH]c(=O)[nH]2)[C@H]1c1ccc(F)cc1)c1cc(C(F)(F)F)cc(C(F)(F)F)c1 [APREPITANT]	-4.81	-4.81	-4.8	-4.81	66.2	58.5	76.6	64.5	81.7%	72.7%	85.5%	80%
CC[C@H](CC#N)OC(=O)N[C@@H](C)c1cccc(NC(=O)Nc2ccc(-c3cnco3)c(OC)c2)c1 [AVN-944]	-6.4	-5.95	-6.32	-5.67	84.4	48	79.5	54.3	35.2%	27.9%	34.3%	39.3%
O=C1COc2c(CCNCCN(C(=O)CCNCCc3ccc(Cl)c(Cl)c3)C3CCCCC3)ccc(O)c2N1 [AZ505]	-4.56	-4.83	-4.86	-4.82	33.8	61.6	70.9	49.1	60.3%	74.2%	82.3%	61.1%
COc1cc(OC2CCN(C)CC2)ccc1Nc1ncc2c(n1)n(C1CCCC1)c(=O)n2C [AZ3146]	-4.79	-4.82	-4.86	-4.85	86.8	86.9	92.5	88.5	110%	96.5%	103%	105%
Nc1nc2n[nH]nc2c(=O)[nH]1 [AZAGUANINE-8]	-5.07	-5.25	-5.14	-5.31	58.7	31.2	45	74.2	53.8%	25.9%	38.3%	54.2%
CC1=C(C(=O)OC(C)C)C(c2cccc([N+](=O)[O-])c2)C(C(=O)OC2CN(C(c3ccccc3)c3ccccc3)C2)=C(N)N1 (stereo not drawn) [AZELNIDIPINE]	-4.91	-4.89	-4.91	-4.94	83.2	80.8	74.8	93.9	86.1%	91.3%	81.9%	99.9%
Cc1c(-c2ccc(O)cc2)n(Cc2ccc(OCCN3CCCCCC3)cc2)c2ccc(O)cc12 [BAZEDOXIFENE]	-4.91	-4.93	-4.97	-5	75.4	70.5	76.7	87.8	83.5%	75.9%	79.1%	87.3%

Structure (SMILES)	EC50 (log10 M) (DIPGX37 [1])	EC50 (log10 M) (HGGX6 [2])	EC50 (log10 M) (DIPGX29 [3])	EC50 (log10 M) (HGGX39 [4])	area under dose-response curve (DIPGX37 [5])	area under dose-response curve (HGGX6 [6])	area under dose-response curve (DIPGX29 [7])	area under dose-response curve (HGGX39 [8])	maximal growth inhibition (DIPGX37 [9])	maximal growth inhibition (HGGX6 [10])	maximal growth inhibition (DIPGX29 [11])	maximal growth inhibition (HGGX39 [12])
CN(C)CCCOc1nn(Cc2ccccc2)c2ccccc12 [BENZYDAMINE]	-5.21	-5.19	-5.29	-5.5	105	63.8	61.8	123	85.5%	53.3%	47.7%	81.4%
Cc1nnc(C[C@@H]2C=C(c3ccc(Cl)cc3)c3ccccc3-n3c(C)nnc32)o1 [BET-BAY 002]	-6.21	-5.39	-5.5	-5.19	58.2	35.1	29.9	42.3	26.3%	27%	21.8%	39.7%
CCN1CCN(c2cc(-c3ccc(F)cc3)c3c(n2)CCCCCC3)CC1 [BLONANSERIN]	-4.93	-4.81	-5.17	-4.94	73.5	64.4	63.1	81.4	77.4%	79.5%	53.1%	85.3%
COc1cc(Nc2c(C#N)cnc3cc(OCCCN4CCN(C)CC4)c(OC)cc23)c(Cl)cc1Cl [BOSUTINIB]	-4.76	-4.75	-4.78	-4.74	80.4	74.3	75.5	71.8	71.8%	75.7%	74.1%	79.3%
CCOC(=O)Nc1cc(-c2ccc(C)c(NS(C)(=O)=O)c2)nn2c(C)nnc12 [BROMOSPORINE]	-5.23	-5.51	-5.25	-5.01	66.5	33	32.2	43.6	53.4%	21.4%	25.2%	42.7%
CCCCOc1ccc(CC(=O)NO)cc1 [BUFEXAMAC]	-4.2	-4.33	-4.28	-4.28	15.4	25.5	15.7	27.2	76.7%	79.2%	57.1%	95.6%
Nc1cc(C(F)(F)F)c(-c2cc(N3CCOCC3)nc(N3CCOCC3)n2)cn1 [BUPARLISIB]	-5.55	-6.21	-5.14	-5.56	95.5	43.9	81.3	58.2	59.3%	21.8%	67.8%	41.2%
Clc1ccc(CCC(Cn2ccnc2)Sc2c(Cl)cccc2Cl)cc1 (stereo not drawn) [BUTOCONAZOLE]	-4.84	-4.79	-4.86	-4.87	69.4	37.8	59.7	80.5	70.3%	47.6%	57%	85.9%
Cc1cc(C2CCCCC2)n(O)c(=O)c1 [CICLOPIROX]	-6.44	-6.23	-6.42	-5.04	142	142	138	84.1	58.3%	63.9%	57.2%	72.3%
C[C@@H](NCCCc1cccc(C(F)(F)F)c1)c1cccc2ccccc12 [CINACALCET]	-5.04	-5.03	-5.03	-5.05	112	98.5	99.9	111	90.5%	84.4%	82.1%	94.2%
CC(C)/N=c1\cc2n(-c3ccc(Cl)cc3)c3ccccc3nc-2cc1Nc1ccc(Cl)cc1 [CLOFAZIMINE]	-4.91	-4.91	-5.16	-4.88	84.9	65.3	76.3	79.8	83.8%	71.5%	54.4%	90.6%
CCN(CC)CCOc1ccc(C(=C(Cl)c2ccccc2)c2ccccc2)cc1 [CLOMIPHENE]	-5.2	-5.11	-4.92	-5.71	102	80.2	71.2	139	84.8%	71.4%	77%	81.6%
CC[C@H](C)n1cc(C)c2c(C(=O)NCc3c(C)cc(C)[nH]c3=O)cc(-c3ccc(N4CCNCC4)nc3)cc21 [GSK126]	-4.88	-4.83	-4.87		74.3	61.2	66.1	13.1	76.7%	74.4%	76.4%	
CC(C)NC[C@@H](C(=O)N1CCN(c2ncnc3c2[C@H](C)C[C@H]3O)CC1)c1ccc(Cl)cc1 [IPATASERTIB]	-5.27	-5.67	-5.18		25.8	49	64.7	11.9	21.5%	31.8%	50.3%	
Clc1ccc(NN=C(c2ccccc2)c2ccccn2)nc1 [JIB-04]		-5.07	-5.13	-5.02	25.7	61.4	63.6	34.4		50.7%	47.2%	34.3%
O=C(O)C[C@H](O)C[C@H](O)/C=C/c1c(C2CC2)nc2ccccc2c1-c1ccc(F)cc1 [PITAVASTATIN]		-5.36	-5.04	-6.26	121	95.1	75.6	215		66.4%	49.2%	92.9%

Source: the supplement of paper PMC8253809
